IC50 and Kd data for three compounds are collected here from BindingDB's records for doi:10.1016/j.chembiol.2010.01.008 (University of Washington, 2010).

Settings in all cases: pH 7.5
For experiment [1], the target named is Dual specificity protein kinase CLK1 (Homo sapiens, UniProt P49759). The experiment can be described thus: In Vitro Activity Assay. The text has this: (§1) In vitro activity assay using various kinases.
For experiment [2], the target named is T1, Interleukin-1 receptor-associated kinase 4 (Homo sapiens, UniProt Q9NWZ3).
T1 sequence (Q9NWZ3 whole entry): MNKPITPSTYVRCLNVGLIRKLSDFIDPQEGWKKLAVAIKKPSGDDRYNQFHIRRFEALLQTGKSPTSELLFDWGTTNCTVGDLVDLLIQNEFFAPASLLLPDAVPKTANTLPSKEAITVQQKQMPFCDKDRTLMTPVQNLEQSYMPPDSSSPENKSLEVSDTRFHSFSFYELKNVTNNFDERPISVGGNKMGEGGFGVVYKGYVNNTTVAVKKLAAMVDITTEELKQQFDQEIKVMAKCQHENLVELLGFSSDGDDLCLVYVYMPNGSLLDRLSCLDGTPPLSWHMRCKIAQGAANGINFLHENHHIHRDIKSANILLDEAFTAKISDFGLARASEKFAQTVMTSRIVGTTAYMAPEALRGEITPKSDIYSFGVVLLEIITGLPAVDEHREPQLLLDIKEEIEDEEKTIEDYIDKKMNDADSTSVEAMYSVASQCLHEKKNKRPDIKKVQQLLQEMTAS
The experiment can be described thus: In Vitro Activity Assay.
Text: as §1

Experiment [3] addresses Mitogen-activated protein kinase 1 (Homo sapiens, UniProt P28482). The experiment is described as follows: In Vitro Activity Assay.
Text: as §1

Experiment [4] deals with Mitogen-activated protein kinase 14 (Homo sapiens, UniProt Q16539). The experiment is described as follows: In Vitro Activity Assay.
Sequence of Mitogen-activated protein kinase 14 (Q16539 whole entry): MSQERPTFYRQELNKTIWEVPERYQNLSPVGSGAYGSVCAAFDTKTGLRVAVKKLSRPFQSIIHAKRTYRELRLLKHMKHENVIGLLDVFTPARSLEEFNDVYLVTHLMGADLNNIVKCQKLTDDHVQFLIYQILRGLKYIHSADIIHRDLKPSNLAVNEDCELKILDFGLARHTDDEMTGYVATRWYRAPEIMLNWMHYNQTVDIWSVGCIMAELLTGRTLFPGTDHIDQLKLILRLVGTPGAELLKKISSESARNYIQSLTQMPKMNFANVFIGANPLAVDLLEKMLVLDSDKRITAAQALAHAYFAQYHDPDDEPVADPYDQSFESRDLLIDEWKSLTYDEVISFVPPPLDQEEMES
Text: as §1

Experiment [5] has as its target T2, Mitogen-activated protein kinase kinase kinase 5 (Homo sapiens, UniProt Q99683).
T2 sequence (Q99683 whole entry): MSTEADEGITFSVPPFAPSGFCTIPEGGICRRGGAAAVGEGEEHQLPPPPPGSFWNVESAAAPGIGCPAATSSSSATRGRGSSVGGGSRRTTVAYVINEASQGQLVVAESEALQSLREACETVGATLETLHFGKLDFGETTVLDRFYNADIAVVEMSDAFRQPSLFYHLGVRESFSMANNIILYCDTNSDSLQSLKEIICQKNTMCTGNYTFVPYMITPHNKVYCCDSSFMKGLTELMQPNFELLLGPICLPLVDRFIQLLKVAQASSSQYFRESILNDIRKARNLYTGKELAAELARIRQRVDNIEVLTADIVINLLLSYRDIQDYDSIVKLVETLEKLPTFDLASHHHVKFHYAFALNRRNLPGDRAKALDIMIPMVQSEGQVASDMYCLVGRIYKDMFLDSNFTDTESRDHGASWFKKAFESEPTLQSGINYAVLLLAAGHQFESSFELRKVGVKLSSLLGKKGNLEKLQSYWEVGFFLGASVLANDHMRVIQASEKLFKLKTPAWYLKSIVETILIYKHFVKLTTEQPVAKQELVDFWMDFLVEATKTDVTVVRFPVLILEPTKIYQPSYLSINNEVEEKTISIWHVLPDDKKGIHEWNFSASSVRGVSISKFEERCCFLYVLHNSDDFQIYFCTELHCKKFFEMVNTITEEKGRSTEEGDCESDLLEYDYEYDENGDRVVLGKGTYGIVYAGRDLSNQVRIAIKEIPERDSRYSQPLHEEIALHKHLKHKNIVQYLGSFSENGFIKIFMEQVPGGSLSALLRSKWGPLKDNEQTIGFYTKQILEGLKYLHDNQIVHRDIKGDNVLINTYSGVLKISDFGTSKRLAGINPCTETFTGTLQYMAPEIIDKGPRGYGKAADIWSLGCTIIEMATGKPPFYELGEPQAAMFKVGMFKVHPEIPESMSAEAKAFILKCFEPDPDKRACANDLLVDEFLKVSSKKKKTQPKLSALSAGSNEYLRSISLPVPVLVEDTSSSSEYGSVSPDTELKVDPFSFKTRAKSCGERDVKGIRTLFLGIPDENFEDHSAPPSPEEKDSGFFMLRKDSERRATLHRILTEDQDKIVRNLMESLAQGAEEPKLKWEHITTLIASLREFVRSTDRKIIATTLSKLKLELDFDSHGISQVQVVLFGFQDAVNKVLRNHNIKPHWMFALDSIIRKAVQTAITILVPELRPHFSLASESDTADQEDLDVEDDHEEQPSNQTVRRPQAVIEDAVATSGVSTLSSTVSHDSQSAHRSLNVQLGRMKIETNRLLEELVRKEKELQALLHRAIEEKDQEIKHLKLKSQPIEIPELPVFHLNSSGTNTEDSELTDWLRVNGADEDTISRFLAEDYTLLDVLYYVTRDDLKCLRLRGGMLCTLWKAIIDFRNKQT
The experiment can be described thus: In Vitro Activity Assay.
Text: as §1

Experiment [6] addresses Proto-oncogene tyrosine-protein kinase Src (Gallus gallus, UniProt P00523). The experiment can be described thus: In Vitro Activity Assay.
Text: as §1

Experiment [7] has as its target Serine/threonine-protein kinase PAK 4 (Homo sapiens, UniProt O96013). The experiment is described as follows: In Vitro Activity Assay.
Text: as §1

The target of experiment [8] is Tyrosine-protein kinase ABL1 (Homo sapiens, UniProt P00519). The experiment is described as follows: In Vitro Activity Assay.
Sequence of Tyrosine-protein kinase ABL1 (P00519 whole entry): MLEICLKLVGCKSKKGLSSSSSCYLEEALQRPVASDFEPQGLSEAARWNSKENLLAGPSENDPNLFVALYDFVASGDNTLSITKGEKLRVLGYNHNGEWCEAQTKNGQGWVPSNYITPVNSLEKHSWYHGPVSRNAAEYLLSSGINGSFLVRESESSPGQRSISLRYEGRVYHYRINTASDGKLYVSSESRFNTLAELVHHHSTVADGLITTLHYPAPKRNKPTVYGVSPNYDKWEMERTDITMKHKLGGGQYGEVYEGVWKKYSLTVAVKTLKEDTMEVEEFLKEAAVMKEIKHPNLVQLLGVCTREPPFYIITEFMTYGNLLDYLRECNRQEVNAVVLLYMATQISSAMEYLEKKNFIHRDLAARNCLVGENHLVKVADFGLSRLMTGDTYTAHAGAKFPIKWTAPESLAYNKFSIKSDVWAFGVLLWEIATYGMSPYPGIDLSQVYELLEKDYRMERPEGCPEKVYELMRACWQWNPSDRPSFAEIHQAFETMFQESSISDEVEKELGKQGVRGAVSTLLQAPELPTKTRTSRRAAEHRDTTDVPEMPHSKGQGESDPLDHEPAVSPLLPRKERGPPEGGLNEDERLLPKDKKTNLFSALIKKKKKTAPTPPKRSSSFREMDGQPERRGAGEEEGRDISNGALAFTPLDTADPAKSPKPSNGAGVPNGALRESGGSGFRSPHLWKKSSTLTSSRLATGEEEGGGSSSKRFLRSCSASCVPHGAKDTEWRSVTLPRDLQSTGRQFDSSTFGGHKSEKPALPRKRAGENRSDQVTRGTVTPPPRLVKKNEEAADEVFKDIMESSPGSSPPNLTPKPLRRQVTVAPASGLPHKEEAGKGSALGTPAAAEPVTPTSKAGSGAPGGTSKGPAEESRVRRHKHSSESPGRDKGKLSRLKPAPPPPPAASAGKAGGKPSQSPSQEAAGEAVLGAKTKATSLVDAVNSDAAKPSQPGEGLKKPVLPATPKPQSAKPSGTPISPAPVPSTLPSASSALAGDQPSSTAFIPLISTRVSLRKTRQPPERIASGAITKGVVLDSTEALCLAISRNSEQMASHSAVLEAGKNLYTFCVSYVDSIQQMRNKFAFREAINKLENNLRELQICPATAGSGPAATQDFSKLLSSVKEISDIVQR
Text: as §1

Experiment [9] deals with Tyrosine-protein kinase CSK (Homo sapiens, UniProt P41240). The experiment can be described thus: In Vitro Activity Assay.
Sequence of Tyrosine-protein kinase CSK (P41240 whole entry): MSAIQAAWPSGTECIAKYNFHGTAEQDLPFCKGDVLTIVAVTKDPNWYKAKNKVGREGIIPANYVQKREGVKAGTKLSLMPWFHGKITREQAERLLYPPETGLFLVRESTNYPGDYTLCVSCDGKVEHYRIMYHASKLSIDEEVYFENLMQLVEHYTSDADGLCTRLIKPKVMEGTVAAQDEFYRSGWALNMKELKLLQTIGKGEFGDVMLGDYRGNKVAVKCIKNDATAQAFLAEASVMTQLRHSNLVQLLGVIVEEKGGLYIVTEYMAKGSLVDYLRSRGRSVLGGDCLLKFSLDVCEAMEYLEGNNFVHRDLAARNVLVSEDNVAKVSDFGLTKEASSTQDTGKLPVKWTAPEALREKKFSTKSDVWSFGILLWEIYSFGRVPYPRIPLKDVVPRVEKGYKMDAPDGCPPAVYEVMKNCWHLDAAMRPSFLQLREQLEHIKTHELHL
Text: as §1

Experiment [10] concerns the target Tyrosine-protein kinase HCK (Homo sapiens, UniProt P08631). The experiment can be described thus: In Vitro Activity Assay.
Text: as §1

In experiment [11] the target is Tyrosine-protein kinase Lck (Homo sapiens, UniProt P06239). The experiment is described as follows: In Vitro Activity Assay.
Sequence of Tyrosine-protein kinase Lck (P06239 whole entry): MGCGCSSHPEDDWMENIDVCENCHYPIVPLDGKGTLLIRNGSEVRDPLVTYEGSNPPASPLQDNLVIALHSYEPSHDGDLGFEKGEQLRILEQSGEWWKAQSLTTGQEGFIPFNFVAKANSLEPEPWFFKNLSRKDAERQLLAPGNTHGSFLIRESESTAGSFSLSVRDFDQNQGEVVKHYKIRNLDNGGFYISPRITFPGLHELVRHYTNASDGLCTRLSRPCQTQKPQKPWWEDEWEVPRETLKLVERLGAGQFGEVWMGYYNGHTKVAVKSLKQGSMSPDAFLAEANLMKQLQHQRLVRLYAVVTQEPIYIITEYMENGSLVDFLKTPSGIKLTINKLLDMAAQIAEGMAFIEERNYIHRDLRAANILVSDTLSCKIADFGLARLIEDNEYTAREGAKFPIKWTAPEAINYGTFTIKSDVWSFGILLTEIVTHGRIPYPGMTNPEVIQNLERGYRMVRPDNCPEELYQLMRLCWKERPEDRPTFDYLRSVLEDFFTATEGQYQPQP
Text: as §1

The target of experiment [12] is cAMP-dependent protein kinase catalytic subunit alpha (Homo sapiens, UniProt P17612). The experiment is described as follows: In Vitro Activity Assay.
Text: as §1

Experiment [13] concerns the target Serine/threonine-protein kinase PAK 5 (Homo sapiens) (UniProt Q9P286). The experiment can be described thus: In vitro activity assay using various kinases.
Experiment [14] has as its target T3, Ephrin type-A receptor 3 [1-975] (Homo sapiens, UniProt P29320).
T3 construct: 1-975
T3 sequence (P29320 whole entry): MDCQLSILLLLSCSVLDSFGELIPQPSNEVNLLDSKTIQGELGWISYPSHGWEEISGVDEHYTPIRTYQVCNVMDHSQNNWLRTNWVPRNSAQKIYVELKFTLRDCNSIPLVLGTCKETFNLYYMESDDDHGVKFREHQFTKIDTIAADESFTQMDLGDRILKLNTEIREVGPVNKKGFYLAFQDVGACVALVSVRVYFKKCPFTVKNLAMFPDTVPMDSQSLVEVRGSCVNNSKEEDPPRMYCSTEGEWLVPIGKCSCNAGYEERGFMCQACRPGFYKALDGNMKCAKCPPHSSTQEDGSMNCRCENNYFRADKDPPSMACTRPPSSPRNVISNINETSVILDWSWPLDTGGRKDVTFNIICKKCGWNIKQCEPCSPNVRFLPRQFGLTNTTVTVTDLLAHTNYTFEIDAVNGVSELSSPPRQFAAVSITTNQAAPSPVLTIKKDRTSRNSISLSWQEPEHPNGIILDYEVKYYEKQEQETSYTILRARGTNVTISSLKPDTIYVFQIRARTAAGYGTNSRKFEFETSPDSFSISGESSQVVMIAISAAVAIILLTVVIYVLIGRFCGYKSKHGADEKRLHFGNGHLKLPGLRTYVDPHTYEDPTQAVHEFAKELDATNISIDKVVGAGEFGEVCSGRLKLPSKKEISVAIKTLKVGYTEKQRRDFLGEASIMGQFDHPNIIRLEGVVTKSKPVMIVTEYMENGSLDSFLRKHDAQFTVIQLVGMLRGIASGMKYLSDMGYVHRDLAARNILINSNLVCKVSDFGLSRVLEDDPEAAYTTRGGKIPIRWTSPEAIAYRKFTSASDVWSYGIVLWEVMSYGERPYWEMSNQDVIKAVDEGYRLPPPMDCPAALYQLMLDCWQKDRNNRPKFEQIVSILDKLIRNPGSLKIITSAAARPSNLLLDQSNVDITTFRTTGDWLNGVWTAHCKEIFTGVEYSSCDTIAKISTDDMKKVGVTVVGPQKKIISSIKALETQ
The experiment is described as follows: In Vitro Activity Assay.
Text: as §1

Experiment [15] has as its target T4, Tyrosine-protein kinase ABL1 [1-999,E255V] (Homo sapiens, UniProt P00519, E255V).
T4 construct: 1-999
The experiment can be described thus: In Vitro Activity Assay.
Text: as §1

The target in experiment [16] is T5, Tyrosine-protein kinase ABL1 [1-999,Y253H] (Homo sapiens, UniProt P00519, Y253H).
T5 construct: 1-999
The experiment is described as follows: In Vitro Activity Assay.
Text: as §1

Values joined by “and” are separate entries in the source; they are usually repeats but may differ in a detail not shown here. Identical values can stand only once. Where only a bound is given, the exact number is not on record here.

Sequence of Serine/threonine-protein kinase PAK 4 (O96013 whole entry): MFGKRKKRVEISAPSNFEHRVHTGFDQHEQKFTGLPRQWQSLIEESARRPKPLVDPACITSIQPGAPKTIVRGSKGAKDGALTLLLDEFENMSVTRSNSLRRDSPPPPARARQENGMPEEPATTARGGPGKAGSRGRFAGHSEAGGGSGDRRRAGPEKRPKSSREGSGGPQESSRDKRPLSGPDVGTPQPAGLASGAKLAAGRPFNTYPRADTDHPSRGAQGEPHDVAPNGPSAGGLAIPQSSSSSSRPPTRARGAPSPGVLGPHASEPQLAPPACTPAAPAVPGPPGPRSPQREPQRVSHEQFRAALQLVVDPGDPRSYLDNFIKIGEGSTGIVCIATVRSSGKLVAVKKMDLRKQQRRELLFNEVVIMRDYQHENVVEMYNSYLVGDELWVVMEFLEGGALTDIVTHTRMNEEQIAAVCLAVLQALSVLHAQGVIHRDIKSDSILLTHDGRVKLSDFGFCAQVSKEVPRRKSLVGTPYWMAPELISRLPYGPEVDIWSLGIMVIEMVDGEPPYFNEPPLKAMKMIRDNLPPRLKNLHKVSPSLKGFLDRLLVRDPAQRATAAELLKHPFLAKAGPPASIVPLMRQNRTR
Sequence of Serine/threonine-protein kinase PAK 5 (Homo sapiens) (Q9P286 whole entry, looked up): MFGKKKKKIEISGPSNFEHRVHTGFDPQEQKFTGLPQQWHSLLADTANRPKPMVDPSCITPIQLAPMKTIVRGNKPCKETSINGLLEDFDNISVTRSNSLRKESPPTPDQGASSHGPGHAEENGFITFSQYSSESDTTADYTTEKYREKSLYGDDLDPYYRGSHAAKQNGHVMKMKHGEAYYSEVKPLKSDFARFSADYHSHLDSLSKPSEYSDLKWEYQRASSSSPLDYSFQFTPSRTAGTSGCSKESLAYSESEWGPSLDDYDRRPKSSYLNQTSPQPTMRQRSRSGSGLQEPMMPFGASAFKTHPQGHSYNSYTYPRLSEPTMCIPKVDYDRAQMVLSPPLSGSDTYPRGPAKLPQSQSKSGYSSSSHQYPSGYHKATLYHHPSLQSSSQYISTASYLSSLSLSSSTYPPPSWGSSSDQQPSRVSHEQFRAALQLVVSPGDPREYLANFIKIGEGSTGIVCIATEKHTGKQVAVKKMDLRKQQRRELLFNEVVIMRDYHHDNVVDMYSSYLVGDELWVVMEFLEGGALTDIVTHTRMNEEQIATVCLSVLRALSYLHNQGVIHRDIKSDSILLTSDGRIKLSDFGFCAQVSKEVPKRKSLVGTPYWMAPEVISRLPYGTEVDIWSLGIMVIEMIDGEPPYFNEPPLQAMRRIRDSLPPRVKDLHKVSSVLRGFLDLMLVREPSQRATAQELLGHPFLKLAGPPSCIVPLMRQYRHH
Sequence of Tyrosine-protein kinase HCK (P08631 whole entry): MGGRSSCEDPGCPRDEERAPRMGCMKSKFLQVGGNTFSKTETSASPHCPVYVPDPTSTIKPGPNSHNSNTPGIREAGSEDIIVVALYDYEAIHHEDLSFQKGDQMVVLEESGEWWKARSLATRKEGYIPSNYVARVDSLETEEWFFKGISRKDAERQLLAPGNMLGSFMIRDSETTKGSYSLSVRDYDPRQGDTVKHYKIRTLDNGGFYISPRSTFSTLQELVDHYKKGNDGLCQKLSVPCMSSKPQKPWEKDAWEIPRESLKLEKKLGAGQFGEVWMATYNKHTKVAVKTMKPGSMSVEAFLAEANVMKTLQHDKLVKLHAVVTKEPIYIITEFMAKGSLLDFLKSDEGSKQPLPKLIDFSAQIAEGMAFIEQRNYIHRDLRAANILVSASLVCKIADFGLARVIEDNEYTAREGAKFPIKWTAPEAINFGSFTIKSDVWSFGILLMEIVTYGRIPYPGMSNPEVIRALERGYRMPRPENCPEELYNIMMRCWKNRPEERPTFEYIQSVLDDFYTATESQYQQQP
Sequence of Dual specificity protein kinase CLK1 (P49759 whole entry): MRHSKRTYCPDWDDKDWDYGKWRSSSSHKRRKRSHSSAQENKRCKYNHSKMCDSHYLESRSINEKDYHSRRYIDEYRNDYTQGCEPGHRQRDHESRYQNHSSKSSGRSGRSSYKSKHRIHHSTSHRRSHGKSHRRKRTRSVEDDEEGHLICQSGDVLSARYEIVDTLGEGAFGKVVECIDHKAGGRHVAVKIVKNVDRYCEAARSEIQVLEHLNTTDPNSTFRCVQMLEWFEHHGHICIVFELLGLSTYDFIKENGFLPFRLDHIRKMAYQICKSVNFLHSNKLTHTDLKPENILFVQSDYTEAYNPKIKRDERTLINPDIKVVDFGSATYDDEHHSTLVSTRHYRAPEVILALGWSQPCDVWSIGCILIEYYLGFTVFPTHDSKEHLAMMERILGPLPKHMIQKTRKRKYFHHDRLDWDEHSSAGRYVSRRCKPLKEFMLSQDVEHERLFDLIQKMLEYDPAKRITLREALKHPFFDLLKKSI

For the compound `Cc1ccc(NC(=O)c2cccc(C(F)(F)F)c2)cc1Nc1ncccc1-c1cc(Nc2ccc(OCCNC(=O)COCCOCCOCCOCCN)cc2)ncn1` [Amine compound, 13a], the IC50 (usually the concentration that inhibits the measured activity by half) in experiment [1] is greater than 10000 nM; in [2] it was greater than 10000 nM; in experiment [3] it was greater than 10000 nM; in experiment [4] it was less than 13 nM; in experiment [5], greater than 10000 nM; in experiment [6] it was 5.7 nM. Besides, the IC50 in [7] is greater than 10000 nM; in experiment [8] it was 6.6 nM; in experiment [9], 140 nM; in experiment [10], 6.3 nM; in experiment [11], less than 10 nM; in [12] it was greater than 10000 nM. For the same compound, the IC50 in experiment [13] was greater than 10000 nM.

For `Cc1ccc(NC(=O)c2cccc(C(F)(F)F)c2)cc1Nc1ncccc1-c1ncnc(Nc2ccc(OCCNC(=O)CCCCNC(=O)CCC3=[N+]4B(F)n5c(C)cc(C)c5C=C4C=C3)cc2)n1` [BODIPY-labeled probe, 4a], the Kd (usually the equilibrium constant for the complex coming apart) in [1] was greater than 1000 nM; in experiment [14] it was 27 nM; in [4] it was 35 nM; in experiment [5], greater than 1000 nM; in experiment [6], 13 nM and 11 nM; in [7] it was greater than 1000 nM. For the same compound, the Kd in experiment [8] worked out at 9.9 nM; in experiment [15] it was 45 nM; in [16], 9.4 nM; in experiment [9], 17 nM; in [10], 8.7 nM; in experiment [11], 20 nM. Moreover, the Kd in experiment [13] was greater than 1000 nM. The IC50 in [4] turned out to be 25.5 nM; in experiment [6], 25.4 nM.

Consider `Cc1ccc(NC(=O)c2cccc(C(F)(F)F)c2)cc1Nc1ncccc1-c1ncnc(Nc2ccc(OCCNC(=O)COCCOCCOCCOCCN)cc2)n1` [Amine compound, 12a], for which the IC50 in [1] is greater than 10000 nM; in [2], greater than 10000 nM; in experiment [3], greater than 10000 nM; in experiment [4] it was less than 13 nM; in [5], greater than 10000 nM; in [6], 3.3 nM. In addition, the IC50 is greater than 10000 nM in [7]; 6.6 nM in experiment [8]; 16.3 nM in [9]; 9.6 nM in experiment [10]; less than 10 nM in experiment [11]; greater than 10000 nM in experiment [12]. In experiment [13], this compound registered an IC50 greater than 10000 nM.
